How the values were obtained:
dengue virus [1] = experiment: Dengue EC50 determination: PBMC infected with virus/humanized 4G2 antibody complex, plaque reduction assay using BHK cells; assay type: cell-based; conditions: M.O.I of 1, 48 hours, plaque reduction in BHK cells
Experimental: Cryopreserved PBMC (Peripheral Blood Mononuclear Cell) cells were purchased from AllCells, LLC in USA. The cells were then thawed according to manufacturer's instructions and re-suspended in RPMI medium supplemented with 1% penicillin/streptomycin solution and 10% Fetal Calf serum. The cells were then counted and viability checked (viability should be at least 80%). After centrifuging and removing the media, the cells were diluted to 1×10^7 cells/mL in RPMI medium supplemented with 1% penicillin/streptomycin. 50 μl of the cells were then dispensed into 96-well tissue culture plate resulting in 5×10^5 cells/well. Next, virus with humanized 4G2 mixture was prepared for infection. Briefly, virus (2×10^7 pfu/ml) was mixed with humanized 4G2 antibody with the final antibody concentration of 0.38 μg/ml and incubated for 30 minutes at 4° C. to assist virus/antibody complex formation. The virus-antibody complex was then added to the PBMC at multiplicity of infection (M.O.I) of 1. The mixture of cells, virus and antibody was then further incubated in the plates at 37° C. for an hour in the humidified incubator for virus attachment and infection to take place. Serial diluted compounds were then added to the final media volume of 200 μl with 2% Fetal Calf Serum (final PBMC concentration would be 2.5×10^6 cells/mL). The plates were then incubated at 37° C., 5% CO2 for another 48 hours. The extent of the infection and compound inhibition was measured by plaque reduction assay using BHK cells [RD-2004-80036]. Briefly, supernatants of BHK cells grown in 24-well tissue culture (seeded at 200,000 cells/well the night before) were removed and subjected to 200 μl of diluted supernatants derived from PBMC infection containing serial diluted compounds. After incubating it for 37° C. for 1 hour in the incubator, the supernatants were removed and BHK cells overlaid with RPMI media containing 0.8% methyl-cellulose, 0.5% DMSO, 0.05% sodium bicarbonate, 25 mM HEPES, 2% fetal bovine serum and 1% penicillin/streptomycin solution. After additional 4 days of incubation at 37° C. incubator, the monolayer of BHK cells were fixed with 4% paraformaldehyde, stained with crystal violet and plaques counted. The dose response (n=2) is calculated by Prism from Graphpad software using a mathematical curve fitting analysis called nonlinear regression with four independent parameters. Briefly, the software generates the best fit curve using the formula F(x)=((A−D)/(1+((x/C)̂B)))+D. In this formula, x represents the concentration of the compound, A is the minimum value, B represents the steepness of the curve (sometimes known as Hill slope), C is the inflection point and D is the maximum value. EC50 was estimated as the concentration of the compound which will inhibit 50% of the plaque formation. A positive control (7-deaza-2′-C-acetylene-adenosine) was used to ensure the quality of the data.

[2] = Liver S9 stability determination; assay type: in vitro ADME; conditions: pooled liver S9 fraction; human liver S9 fraction, 1 μM compound, 37° C., up to 120 mins; read-out: liver S9 t1/2
Text: The liver is the main organ of metabolism and contains a high concentration of drug metabolizing enzymes. Metabolic clearance, particularly hepatic, is one of the main determinants affecting systemic drug exposure following both oral and i.v. administration. To assess the ability of the compounds of the invention to reach a systemic circulation, the hepatic S9 fraction was chosen to test for stability of the compounds. Hepatic S9 fraction was obtained following centrifugation of homogenized liver tissue at 9,000 g. The hepatic S9 fraction is composed of both microsomal and cytosolic fractions and contains all the enzymes contained in microsomes plus additional phase I and phase II cytosolic enzymes.
Stock solutions of each tested compound (100 μM) were prepared in methanol by two subsequent 1:10 dilutions from 10 mM DMSO drug solutions, the final assay concentration was 1 μM. Frozen pooled liver S9 fraction was thawed from −20° C. and diluted in phosphate buffer (with and without NADPH) which was pre-warmed at 37° C. for 10 minutes. The reaction was initiated by addition of compound. Manual sample plates were incubated on a Thermo Max Q 2000 shaker placed in a temperature controlled Sartorius Certomat H hood set at 37° C. Sequential samples were removed at designated timepoints (0, 5, 15, 30, 60 and 120 mins) and quenched with 4 volumes of ice cold acetonitrile (containing internal standard, diazepam), centrifuged and supernatants reconstituted in water (acetonitrile:water, 50:50% v/v). Samples were then analyzed by LCMS/MS or LC-UV to assess parent depletion. In vitro half-life (t1/2) is calculated based on the rate of disappearance of compound from the reaction mixture at incubation timepoints up to 2 hours.

dengue virus [3] = experiment: Intracellular nucleoside triphosphate concentration needed to inhibit 50% of viral production (NTP50) in PBMC; assay type: cell-based
Experimental: NTP50 is defined as the concentration of the nucleoside triphosphate (NTP) that will inhibit 50% of viral production. The NTP50 experiment was performed using cryopreserved PBMC as described above in the Dengue EC50 determination section. Briefly, PBMC was thawed and incubated in RPMI medium containing 2% Fetal Bovine serum (FBS), 1% Penicillin/Streptomycin supplemented with various concentration of a representative compound of the present invention (e.g., Example 2) up to 100 μM. After the intracellular conversion of Example 2 into corresponding nucleoside triphosphate reached steady state (24 hours at 37° C. in the incubator), the cells were spun down, washed with 0.9% NaCl solution and lyzed in RIPA buffer (50 mM Tris pH 7.5, 150 mM NaCl, 1% NP40) containing with protease and phosphotase inhibitor. The cells were further incubated at room temperature for complete lysis of the cells and the cell debris spun down at 13,000 g in at 4° C. for 20 minutes. The lysate was transferred into […] and the concentration of the nucleoside triphosphate was measured. The concentration of the nucleoside triphosphate was then plotted against the concentration of Example 2 and a curve of the concentration of the nucleoside triphosphate vs incubated Example 2 was generated using Michaelis-Menten Kinetics with the formula Y=A[Example 2]/B+[Example 2] where Y is the concentration of the nucleoside triphosphate and [Example 2] is the concentration of the compound Example 2. A and B were constants determined by best fitting. By EC50 of [Example 2] in the equation, the intracellular concentration of nucleoside triphosphate which corresponds to 50% reduction of the virus (NTP50) can be determined.
Since all compounds of the present invention would be converted to the same nucleoside triphosphate intracellularly (the structure of NTP is shown below), the NTP50 of all compounds of the present invention would be the same regardless which compound was used in the experiment. NTP50 for the compound Example 2 was measured to be 0.0016 μM in PBMC lysate from 1 million cells with 100 μL of lysis buffer. The Mean Corpuscular Volume of PBMC is approximately 0.3×10^−6 μL/per cell=0.3 μL/1 million cells. By using the literature of Simiele, M. et al. Antimicrob. Agents Chemother. 2011 55, 2976-2978, NTP50=0.0016×(100/0.3)=0.53 μM/1 million cells=0.53×0.3/1.0×10^6=0.159×10^−6 μmol/1 million cells. Thus, from the calculation, the intracellular nucleoside triphosphate concentration needed to inhibit 50% of viral production (NTP50) is around ˜200 fmol/1 million cells.

Structure (SMILES) | EC50 (dengue virus [1]) | half-life at 1 μM [2] | NTP50 (dengue virus [3]; in PBMC lysate from 1 million cells with 100 μL of lysis buffer) | NTP50 (dengue virus [3]; intracellular amount, calculated) | NTP50 (dengue virus [3]; intracellular amount, rounded from the calculation) | NTP50 (dengue virus [3]; intracellular, corrected with PBMC volume 0.3 μL/1 million cells)
CCOc1nc(N)nc2c1ncn2[C@@H]1O[C@@H]2CO[P@@](=O)(N[C@H](C)C(=O)OC(C)C)O[C@H]2[C@@]1(C)F [Example 6, (R)-isopropyl 2-(((2S,4aR,6R,7R,7aR)-6-(2-amino-6-ethoxy-9H-purin-9-yl)-7-fluoro-7-methyl-2-oxidotetrahydro-4H-furo[3,2-d][1,3,2]dioxaphosphinin-2-yl)amino)propanoate] | 370 nM | > 120 min |  |  |  | 
CCOC(=O)[C@H](C)N[P@@]1(=O)OC[C@H]2O[C@@H](n3cnc4c(OCC)nc(N)nc43)[C@](C)(F)[C@@H]2O1 [Example 1, (S)-ethyl 2-(((2R,4aR,6R,7R,7aR)-6-(2-amino-6-ethoxy-9H-purin-9-yl)-7-fluoro-7-methyl-2-oxidotetrahydro-4H-furo[3,2-d][1,3,2]dioxaphosphinin-2-yl)amino)propanoate] | 230 nM | 76 min |  |  |  | 
CCOc1nc(N)nc2c1ncn2[C@@H]1O[C@@H]2CO[P@](=O)(N[C@@H](C)C(=O)OC)O[C@H]2[C@@]1(C)F [Example 3, (S)-methyl 2-(((2R,4aR,6R,7R,7aR)-6-(2-amino-6-ethoxy-9H-purin-9-yl)-7-fluoro-7-methyl-2-oxidotetrahydro-4H-furo[3,2-d][1,3,2]dioxaphosphinin-2-yl)amino)propanoate] | 460 nM | > 120 min |  |  |  | 
CCOc1nc(N)nc2c1ncn2[C@@H]1O[C@@H]2CO[P@@](=O)(N[C@@H](C)C(=O)OC(C)C)O[C@H]2[C@@]1(C)F [Example 2, (S)-isopropyl 2-(((2S,4aR,6R,7R,7aR)-6-(2-amino-6-ethoxy-9H-purin-9-yl)-7-fluoro-7-methyl-2-oxidotetrahydro-4H-furo[3,2-d][1,3,2]dioxaphosphinin-2-yl)amino)propanoate] | 72 nM | 36 min | 0.0016 µM | 0.159×10^−6 μmol/1 million cells | ~200 fmol/1 million cells | 0.53 μM/1 million cells

Source: patent US20140205566A1, “CYCLIC NUCLEUOSIDE DERIVATIVES AND USES THEREOF” (NOVARTIS AG, priority 2012, published 2014)
